This is an account of results in patent publication US5770595A, “Oxime substituted therapeutic compounds” (Cell Therapeutics, Inc., priority 1994, dated 1998).

Experiment [1] deals with P388D1 cells. The experiment can be described thus: IL-1α release from LPS-stimulated P388D1 cells. The experiment is classed as cell-based, murine. Conditions: 0.25 mM, LPS 10 μg/ml. The procedure:
This example illustrates the ability of inventive compound no. 1521 to inhibit IL-1α release from P388D1 cells when stimulated with LPS. This assay is a model for septic shock. P388D1 cells (10^5) were treated with LPS at 10 μg/ml in RPMI media containing 10% fetal calf serum. Supernatants were assayed for IL-1α by an ELISA technique at various times following LPS stimulation. The cells were treated one hour prior to LPS stimulation with 0.25 mM of compound no. 1521.

The test system of experiment [2] is U937 cells / activated human umbilical vein endothelial cells (HUVEC). The experiment can be described thus: adhesion of U937 cells to TNF-activated HUVEC. Conditions: human TNF 20 ng/ml, 12 hours. The experiment is classed as cell-based. Here is the method:
Another assay measures the effects of drug to inhibit adhesion of U937 cells to TNF-activated HUVEC cells In this experiment, HUVEC cells are induced with human TNF-α (20 ng/ml) and drug at varying concentrations for 14-16 hrs. U937 cells (a human monocyte cell line) are incubated and labeled with BCECF (10 μg/ml), a fluorescent dye. The U937 cell preparation (2.5×10^4 cells per well) is layered on top of the activated HUVEC cells. The cells are reverse spun to remove partially adhering and nonadhering U937 cell. The adherent U937 cells are measured by fluorescence on a fluorescent plate reader.
1521 to inhibit adhesion of U937 cells to activated human umbilical vein endothelial cells (HUVEC). HUVEC cells were activated with 20 ng/ml of human TNF for 12 hours. Compound no. 1521 was added to samples one hour prior to adding TNF. U937 cells preloaded with a fluorescent dye were added to the HUVEC cells and adhesion measured after washing. Compound no. […] Background adhesion of U937 cells to non-activated HUVEC is shown as a dashed line.

In experiment [3] the test system is P388D1 cells. The experiment can be described thus: TNF-α release from LPS-stimulated P388D1 cells. Conditions: 0.25 mM, LPS 10 μg/ml. The experiment is classed as cell-based, murine. Here is the method:
This example illustrates the ability of compound no. 1521 to inhibit TNF-α release from P388D1 cells (a murine monocyte/macrophage line) when stimulated with LPS. This assay is a model for septic shock. P388D1 cells (10^5) were treated with LPS at 10 μg/ml in RPMI media containing 10% fetal calf serum. Supernatants were assayed for TNF by an ELISA technique at various times following LPS stimulation. The cells were treated one hour prior to LPS stimulation with 0.25 mM compound no. 1521.

Experiment [4] relates to murine peritoneal macrophages. The experiment can be described thus: IL-1α release from LPS-stimulated murine peritoneal macrophages. The experiment is classed as cell-based. Conditions: 0.25 mM, LPS 10 μg/ml. Here is the method:
This example illustrates the ability of inventive compound no. 1521 to inhibit IL-1α release from murine peritoneal macrophages when stimulated with LPS. This assay is a model for septic shock. Macrophages (10^5) were treated with LPS at 10 μg/ml in RPMI media containing 10% fetal calf serum. Supernatants were assayed for IL-1α by an ELISA technique at various times following LPS stimulation. The cells were treated one hour prior to LPS stimulation with 0.25 mM 1521.

`CC(CCCCn1c(=O)c2c(ncn2C)n(C)c1=O)=NO` [Compound no. 1521]: the “inhibition of IL-1α release” value (in the experiment on P388D1 cells [1]; in experiment [4]) was “inhibited IL-1α release” each time. The “adhesion of U937 cells to activated HUVEC” value in experiment [2] is “reduced adhesion”. Moreover, the “inhibition of TNF-α release” value with P388D1 cells [3] is on record as “inhibited TNF release”.
